Experiments:
[1] = target: T1, human B1R receptor (hB1R) (Homo sapiens, UniProt P46663); test: FLIPR Ca2+ assay on hB1R-transfected CHO K1 cells, antagonistic action; assay type: cell-based; conditions: CHO-K1, 10 μM test substance; agonist Lys-Des-Arg9-bradykinin 0.5 nM; % of maximum achievable inhibition; read-out: hB1R [10 μM] % inhibition
T1 construct: host or cells: CHO K1 cells
T1 sequence (P46663 1-353): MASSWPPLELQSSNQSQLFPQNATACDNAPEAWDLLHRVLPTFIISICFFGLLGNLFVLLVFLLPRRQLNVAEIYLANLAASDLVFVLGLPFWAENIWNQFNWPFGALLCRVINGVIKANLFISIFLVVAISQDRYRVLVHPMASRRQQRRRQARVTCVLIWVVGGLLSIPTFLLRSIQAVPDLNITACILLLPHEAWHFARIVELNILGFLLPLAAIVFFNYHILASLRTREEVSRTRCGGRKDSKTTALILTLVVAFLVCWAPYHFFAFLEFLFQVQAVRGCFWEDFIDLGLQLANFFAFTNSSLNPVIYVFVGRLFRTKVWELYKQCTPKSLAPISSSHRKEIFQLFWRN

[2] = target: T2, B1R receptor of the rat (rB1R) (Rattus norvegicus, UniProt P97583); test: FLIPR Ca2+ assay on rB1R-transfected CHO K1 cells, antagonistic action; assay type: cell-based; conditions: CHO-K1, 10 μM test substance; agonist Des-Arg9-bradykinin 100 nM; % of maximum achievable inhibition; read-out: rB1R [10 μM] % inhibition
T2 construct: host or cells: CHO K1 cells
T2 sequence (P97583 1-337): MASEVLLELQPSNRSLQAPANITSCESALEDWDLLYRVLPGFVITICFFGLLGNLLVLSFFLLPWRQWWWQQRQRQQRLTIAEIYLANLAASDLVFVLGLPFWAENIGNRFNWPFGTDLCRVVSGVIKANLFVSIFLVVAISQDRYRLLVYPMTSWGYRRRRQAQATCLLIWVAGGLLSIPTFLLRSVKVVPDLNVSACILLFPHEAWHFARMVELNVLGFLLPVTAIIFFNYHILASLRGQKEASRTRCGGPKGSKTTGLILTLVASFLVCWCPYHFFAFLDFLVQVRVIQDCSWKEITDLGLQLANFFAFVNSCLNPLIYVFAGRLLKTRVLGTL

Compound	inhibition at 10 µM [1] [%]	inhibition at 10 µM [2] [%]
CN1CCN(C2(CCc3ccccc3)CCC(CN(C)C(=O)COCC3CCCCN3S(=O)(=O)c3c(Cl)cc(Cl)cc3Cl)CC2)CC1 (stereo not shown) [Compound 161, N-methyl-N-((4-(4-methylpiperazin-1-yl)-4-phenethylcyclohexyl)methyl)-2-((1-(2,4,6-trichlorophenylsulfonyl)piperidin-2-yl)methoxy)acetamide]	101	98
CN1CCN(C2(Cc3ccccc3)CCC(CN(C)C(=O)COCC3CCCCN3S(=O)(=O)c3c(Cl)cc(Cl)cc3Cl)CC2)CC1 (stereo not shown) [Compound 162, N-((4-benzyl-4-(4-methylpiperazin-1-yl)cyclohexyl)methyl)-N-methyl-2-((1-(2,4,6-trichlorophenylsulfonyl)piperidin-2-yl)methoxy)acetamide]	102	94
O=C(COCC1CCCCN1S(=O)(=O)c1c(Cl)cc(Cl)cc1Cl)NC1CCC(Cc2ccccc2)(N2CCCC2)CC1 (stereo not shown) [Compound 163, N-(4-benzyl-4-(pyrrolidin-1-yl)cyclohexyl)-2-((1-(2,4,6-trichlorophenylsulfonyl)piperidin-2-yl)methoxy)acetamide]	84	93
O=C(COCC1CCCN1S(=O)(=O)c1c(Cl)cc(Cl)cc1Cl)NC1CCC(c2ccccc2)(N2CCOCC2)CC1 (stereo not shown) [Compound 164, N-(4-morpholino-4-phenylcyclohexyl)-2-((1-(2,4,6-trichlorophenylsulfonyl)pyrrolidin-2-yl)methoxy)acetamide]	74	90
COc1cc(C)c(S(=O)(=O)N(C)CCOCC(=O)N(C)CC2CCC(CCc3ccccc3)(N3CCN(C)CC3)CC2)c(C)c1 (stereo not shown) [Compound 165, 2-(2-(4-methoxy-N,2,6-trimethylphenylsulfonamido)ethoxy)-N-methyl-N-((4-(4-methylpiperazin-1-yl)-4-phenethylcyclohexyl)methyl)acetamide]	103	90
COc1cc(C)c(S(=O)(=O)N2CCC(OCC(=O)NC3CCC(Cc4ccccc4)(N4CCCC4)CC3)C2)c(C)c1 (stereo not shown) [Compound 166, N-(4-benzyl-4-(pyrrolidin-1-yl)cyclohexyl)-2-(1-(4-methoxy-2,6-dimethylphenylsulfonyl)pyrrolidin-3-yloxy)acetamide]	92	90
COc1cc(C)c(S(=O)(=O)N(C)CCOCC(=O)NC2CCC(c3ccccc3)(N3CCOCC3)CC2)c(C)c1 (stereo not shown) [Compound 167, 2-(2-(4-methoxy-N,2,6-trimethylphenylsulfonamido)ethoxy)-N-(4-morpholino-4-phenylcyclohexyl)acetamide]	100	88
CN1CCN(C2(Cc3ccccc3)CCC(CN(C)C(=O)COCC3CCCN3S(=O)(=O)c3c(Cl)cc(Cl)cc3Cl)CC2)CC1 (stereo not shown) [Compound 168, N-((4-benzyl-4-(4-methylpiperazin-1-yl)cyclohexyl)methyl)-N-methyl-2-((1-(2,4,6-trichlorophenylsulfonyl)pyrrolidin-2-yl)methoxy)acetamide]	88	88
COc1cc(C)c(S(=O)(=O)N2CCCC2COCC(=O)NCC2CCC(Cc3ccccc3)(N3CCOCC3)CC2)c(C)c1 (stereo not shown) [Compound 169, N-((4-benzyl-4-morpholinocyclohexyl)methyl)-2-((1-(4-methoxy-2,6-dimethylphenylsulfonyl)pyrrolidin-2-yl)methoxy)acetamide]	41	86
COc1cc(C)c(S(=O)(=O)N(C)CCOCC(=O)NC2CCC(Cc3ccccc3)(N3CCCC3)CC2)c(C)c1 (stereo not shown) [Compound 170, N-(4-benzyl-4-(pyrrolidin-1-yl)cyclohexyl)-2-(2-(4-methoxy-N,2,6-trimethylphenylsulfonamido)ethoxy)acetamide]	104	84
COc1cc(C)c(S(=O)(=O)N(C)CCOCC(=O)NC2CCC(Cc3ccccc3)(N3CCOCC3)CC2)c(C)c1 (stereo not shown) [Compound 171, N-(4-benzyl-4-morpholinocyclohexyl)-2-(2-(4-methoxy-N,2,6-trimethylphenylsulfonamido)ethoxy)acetamide]	75	82
CN1CCN(C2(CCc3ccccc3)CCC(CN(C)C(=O)COCC3CCCN3S(=O)(=O)c3c(Cl)cc(Cl)cc3Cl)CC2)CC1 (stereo not shown) [Compound 172, N-methyl-N-((4-(4-methylpiperazin-1-yl)-4-phenethylcyclohexyl)methyl)-2-((1-(2,4,6-trichlorophenylsulfonyl)pyrrolidin-2-yl)methoxy)acetamide]	98	79
COc1cc(C)c(S(=O)(=O)N2CCC(OCC(=O)NCC3CCC(c4ccccc4)(N4CCOCC4)CC3)C2)c(C)c1 (stereo not shown) [Compound 173, 2-(1-(4-methoxy-2,6-dimethylphenylsulfonyl)pyrrolidin-3-yloxy)-N-((4-morpholino-4-phenylcyclohexyl)methyl)acetamide]	64	78
COc1cc(C)c(S(=O)(=O)N2CCC(OCC(=O)N(C)CC3CCC(Cc4ccccc4)(N4CCN(C)CC4)CC3)C2)c(C)c1 (stereo not shown) [Compound 174, N-((4-benzyl-4-(4-methylpiperazin-1-yl)cyclohexyl)methyl)-2-(1-(4-methoxy-2,6-dimethylphenylsulfonyl)pyrrolidin-3-yloxy)-N-methylacetamide]	99	78
CN1CCN(C2(Cc3ccccc3)CCC(CN(C)C(=O)COC3CCCN(S(=O)(=O)c4c(Cl)cc(Cl)cc4Cl)C3)CC2)CC1 (stereo not shown) [Compound 175, N-((4-benzyl-4-(4-methylpiperazin-1-yl)cyclohexyl)methyl)-N-methyl-2-(1-(2,4,6-trichlorophenylsulfonyl)piperidin-3-yloxy)acetamide]	97	77
COc1cc(C)c(S(=O)(=O)N2CCCC(OCC(=O)NC3CCC(c4ccccc4)(N4CCCC4)CC3)C2)c(C)c1 (stereo not shown) [Compound 176, 2-(1-(4-methoxy-2,6-dimethylphenylsulfonyl)piperidin-3-yloxy)-N-(4-phenyl-4-(pyrrolidin-1-yl)cyclohexyl)acetamide]	89	77
COc1cc(C)c(S(=O)(=O)N2CCC(OCC(=O)N(C)CC3CCC(CCc4ccccc4)(N4CCN(C)CC4)CC3)C2)c(C)c1 (stereo not shown) [Compound 177, 2-(1-(4-methoxy-2,6-dimethylphenylsulfonyl)pyrrolidin-3-yloxy)-N-methyl-N-((4-(4-methylpiperazin-1-yl)-4-phenethylcyclohexyl)methyl)acetamide]	103	76
O=C(COC1CCN(S(=O)(=O)c2c(Cl)cc(Cl)cc2Cl)C1)NC1CCC(c2ccccc2)(N2CCCC2)CC1 (stereo not shown) [Compound 178, N-(4-phenyl-4-(pyrrolidin-1-yl)cyclohexyl)-2-(1-(2,4,6-trichlorophenylsulfonyl)pyrrolidin-3-yloxy)acetamide]	53	76
CN(CCOCC(=O)NC1CCC(c2ccccc2)(N2CCCC2)CC1)S(=O)(=O)c1ccc(Cl)cc1Cl (stereo not shown) [Compound 179, 2-(2-(2,4-dichloro-N-methylphenylsulfonamido)ethoxy)-N-(4-phenyl-4-(pyrrolidin-1-yl)cyclohexyl)acetamide]	41	75
COc1cc(C)c(S(=O)(=O)N2CCCC(COCC(=O)NC3CCC(Cc4ccccc4)(N4CCCC4)CC3)C2)c(C)c1 (stereo not shown) [Compound 180, N-(4-benzyl-4-(pyrrolidin-1-yl)cyclohexyl)-2-((1-(4-methoxy-2,6-dimethylphenylsulfonyl)piperidin-3-yl)methoxy)acetamide]	71	73
COc1cc(C)c(S(=O)(=O)N2CCCC(OCC(=O)NC3CCC(Cc4ccccc4)(N4CCCC4)CC3)C2)c(C)c1 (stereo not shown) [Compound 181, N-(4-benzyl-4-(pyrrolidin-1-yl)cyclohexyl)-2-(1-(4-methoxy-2,6-dimethylphenylsulfonyl)piperidin-3-yloxy)acetamide]	78	71
COc1cc(C)c(S(=O)(=O)N2CCCC(COCC(=O)N(C)CC3CCC(CCc4ccccc4)(N4CCN(C)CC4)CC3)C2)c(C)c1 (stereo not shown) [Compound 182, 2-((1-(4-methoxy-2,6-dimethylphenylsulfonyl)piperidin-3-yl)methoxy)-N-methyl-N-((4-(4-methylpiperazin-1-yl)-4-phenethylcyclohexyl)methyl)acetamide]	106	67
COc1cc(C)c(S(=O)(=O)N(C)CCOCC(=O)N(C)CC2CCC(Cc3ccccc3)(N3CCN(C)CC3)CC2)c(C)c1 (stereo not shown) [Compound 183, N-((4-benzyl-4-(4-methylpiperazin-1-yl)cyclohexyl)methyl)-2-(2-(4-methoxy-N,2,6-trimethylphenylsulfonamido)ethoxy)-N-methylacetamide]	102	66
